Measured values from US20200171165A1, “ENHANCED TARGETED DELIVERY OF THERAPEUTIC AGENTS” (Proteogenomics Research Institute for Systems Medicine, priority 2018, published 2020).

Legend:
[1] = system: HER2/neu spontaneous mammary tumors; assay: HER2/neu transgenic spontaneous mammary tumor model: survival and toxicity; type: in vivo, mouse; conditions: single IV dose 5 mg/kg
Excerpt: We also performed a pilot efficacy study of hAnnA1-CMD-Pt(II) in a genetically engineered mouse HER2/neu model that develops spontaneous mammary tumors (GuyWebster et al., 1992; Reilly et al., 2000).

mammary tumors (N202) = assay: IVM ectopic-orthotopic (EO) mammary tumor model, spheroids in dorsal skin window chambers: tumor growth
Description: We used the classic IVM tumor model with modifications (Asaishi et al., 1981; Endrich et al., 1980; Vajkoczy et al., 2000). The mice, usually athymic nude mice (25-30 g body weight), were anesthetized (7.3 mg ketamine hydrochloride and 2.3 mg xylazine per 100 g body weight, intraperitoneal injection) and placed on a heating pad. A titanium frame was placed onto the dorsal skinfold of mice to sandwich the extended double layer of skin. A 15 mm diameter full-thickness circular layer of skin was then excised. The superficial fascia on top of the remaining skin was carefully removed to expose the underlying muscle and subcutaneous tissue which was then covered with another titanium frame with a glass coverslip to form the window chamber. After a recovery period of 1-2 days, tumor spheroids were implanted.
Tumor spheroids were formed by plating 50,000 cells onto 1% agar-coated 96-well non-tissue culture treated flat bottom dishes (20 μl cells in 100 μl medium) and centrifuging 4 times at 2000 rpm for 15 min, rotating the dish after every centrifugation. The cells were incubated an additional 3-7 days (depending on cell type) at 37° C. in 5% CO2 in air to form tight spheroids. BT-474 cells required 500,000 cells in the presence of Matrigel (BD Bioscience, San Diego) (1:1 cell volume dilution) to form spheroids in culture. […]
Tumors were imaged using intravital fluorescence microscopy, as described (Borgstrom et al., 2013; Oh et al., 2007; Oh et al., 2014). Tumor growth was analyzed off-line from the recorded, digital, grayscale 0-to-256 images using Image-Pro Plus (Media Cybernetics, Bethesda, Md.). Tumor growth was determined in 2 ways, by measuring the area with fluorescence signal from the GFP or CFP expressing tumor cells or by quantifying the cumulative fluorescence signal for the tumor over time. Tumor area is measured by counting the number of pixels with a grayscale intensity above 75, thereby making it easier to reliably follow irregularly shaped tumors. The cumulative tumor fluorescence signal was measured by signal summation of all pixels over 75. […]

N.N.[Cl][Pt][Cl] [cisplatin]
Mean extension in survival vs untreated controls [1]: 30 days

COc1cccc2c1C(=O)c1c(O)c3c(c(O)c1C2=O)C[C@@](O)(C(=O)CO)C[C@@H]3O[C@H]1C[C@H](N)[C@H](O)[C@H](C)O1 [free doxorubicin, doxorubicin]
Tumor response (IVM) (mammary tumors (N202); free drug 1 mg/kg): no effect
Tumor response (IVM) (mammary tumors (N202); free drug 5 mg/kg (near MTD)): slowed tumor growth modestly

CC(=O)O[C@@]12CO[C@@H]1C[C@H](O)[C@@]1(C)C(=O)[C@H](O)C3=C(C)[C@@H](OC(=O)[C@H](O)[C@@H](NC(=O)OC(C)(C)C)c4ccccc4)C[C@@](O)([C@@H](OC(=O)c4ccccc4)[C@H]21)C3(C)C [docetaxel]
Tumor response (mammary tumors (N202); unconjugated drug 5 mg/kg): produced less benefit
